Source: ChEMBL document CHEMBL1201862, “PubChem BioAssay data set” (2004)
The source made the active and inactive calls.

How the values were obtained:
[1] = biological target: ADP-ribosylation factor GTPase-activating protein 1 (Rattus norvegicus, UniProt Q62848); experiment: Fluorescence polarization-based biochemical high throughput dose response screening assay to identify inhibitors of ADP-ribosylation factor GTPase activating protein 1 (ARFGAP1).; assay type: functional
[2] = test system: Streptococcus sp. 'group A'; experiment: growth inhibition of control SK(-) GAS strain, dose response, counter-screen for streptokinase expression inhibitor project, luminescence, kanamycin, BacTiterGlo, confirmation (AID 1900); assay type: functional, organism-based
Streptokinase A = biological target: T1, Streptokinase A (Streptococcus pyogenes serotype M1, UniProt P10520); experiment: S. pyogenes streptokinase expression inhibitors, potency, dose response, plasminogen activation absorbance, OD405 (AID 1914); assay type: functional, Streptococcus pyogenes M1 GAS;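 note: secreted streptokinase activity via plasminogen activation per viability signal from cell pellet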
T1 sequence (P10520 whole entry): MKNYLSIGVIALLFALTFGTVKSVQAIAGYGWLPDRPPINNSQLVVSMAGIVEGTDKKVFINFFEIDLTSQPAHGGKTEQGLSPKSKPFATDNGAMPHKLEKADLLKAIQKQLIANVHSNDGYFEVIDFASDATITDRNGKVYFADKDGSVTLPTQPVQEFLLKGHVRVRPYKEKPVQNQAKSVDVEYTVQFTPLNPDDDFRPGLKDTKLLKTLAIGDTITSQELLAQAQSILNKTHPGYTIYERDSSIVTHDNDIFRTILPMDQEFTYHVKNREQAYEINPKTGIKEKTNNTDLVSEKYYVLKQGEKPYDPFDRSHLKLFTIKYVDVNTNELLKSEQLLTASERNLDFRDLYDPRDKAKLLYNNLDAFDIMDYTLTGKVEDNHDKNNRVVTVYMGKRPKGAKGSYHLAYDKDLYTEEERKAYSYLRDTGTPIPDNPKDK

[3] = inhibitors of intracellular T. cruzi replication, confirmation, NIH3T3 host cells, beta-gal luminescence (AID 2044); assay type: functional, cell-based;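 note: intracellular parasites grown in NIH/3T3 mouse fibroblasts as host cells; luminescent beta-galactosidase reporter signal from transgenic T. cruzi replicating inside host cells; inhibitors lower the luminescence signal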
[4] = growth suppression of PTEN-null colon cells, dose response, cell-based, HCT116 PTEN knockout (AID 1047); assay type: functional;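 note: HCT116 colon tumor cells with PTEN knocked out; cells exposed to compound for 60 hours before readout; potency for loss of cell viability measured by luminescence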
[5] = biological target: T2, Calpain-2 catalytic subunit (Sus scrofa, UniProt P43367); experiment: pig calpain II inhibitor potency, dose response, biochemical, fluorogenic peptide substrate (AID 1420); assay type: functional
T2 sequence (P43367 whole entry): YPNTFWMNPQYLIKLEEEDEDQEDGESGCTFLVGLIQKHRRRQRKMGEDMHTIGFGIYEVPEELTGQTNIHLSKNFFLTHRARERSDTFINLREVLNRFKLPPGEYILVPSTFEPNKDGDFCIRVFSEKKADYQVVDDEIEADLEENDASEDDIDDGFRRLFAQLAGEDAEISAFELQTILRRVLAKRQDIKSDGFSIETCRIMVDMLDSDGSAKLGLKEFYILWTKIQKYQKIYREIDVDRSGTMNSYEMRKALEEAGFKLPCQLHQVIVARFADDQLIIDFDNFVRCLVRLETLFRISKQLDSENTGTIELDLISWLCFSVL

[6] = cytotoxicity toward NIH3T3 fibroblasts, dose response, counter-screen, cell-based, ATP luminescence, mouse fibroblasts (AID 2010); assay type: functional;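 note: cells exposed to compound for about 90 hours before reading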
[7] = growth suppression of beta-catenin-knockout colon cells, dose response, cell-based, HCT116, human colon tumor (AID 1045); assay type: functional;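 note: HCT116 colon tumor cells with beta catenin knocked out; cells exposed to compound for 60 hours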
Streptococcus = experiment: Group A Streptococcus viability loss, dose response, counter-screen for streptokinase expression inhibitor project, luminescence, BacTiterGlo (AID 1915); assay type: functional, organism-based;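 note: potency for reduction of bacterial viability or growth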
[8] = biological target: T3, Methionyl-tRNA synthetase, putative (Trypanosoma brucei brucei, UniProt Q38C91); assay type: functional, Trypanosoma brucei brucei strain 927/4 GUTat10.1
[9] = Counterscreen for inhibitors of Trypanosoma brucei methionyl tRNA synthetase (MetRS): Luminescence-based cell-based high throughput dose response assay to identify compounds that are cytotoxic to Jurkat human T lymphocyte cells.; assay type: functional
[10] = biological target: T3, Methionyl-tRNA synthetase, putative; assay type: functional, Trypanosoma brucei brucei strain 927/4 GUTat10.1; remark: listed apart in the source
Cytochrome P450 1A2 = biological target: T4, Cytochrome P450 1A2 (Homo sapiens, UniProt P05177);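 note: PubChem cytochrome P450 panel assay, CYP1A2 panel member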
T4 sequence (P05177 whole entry): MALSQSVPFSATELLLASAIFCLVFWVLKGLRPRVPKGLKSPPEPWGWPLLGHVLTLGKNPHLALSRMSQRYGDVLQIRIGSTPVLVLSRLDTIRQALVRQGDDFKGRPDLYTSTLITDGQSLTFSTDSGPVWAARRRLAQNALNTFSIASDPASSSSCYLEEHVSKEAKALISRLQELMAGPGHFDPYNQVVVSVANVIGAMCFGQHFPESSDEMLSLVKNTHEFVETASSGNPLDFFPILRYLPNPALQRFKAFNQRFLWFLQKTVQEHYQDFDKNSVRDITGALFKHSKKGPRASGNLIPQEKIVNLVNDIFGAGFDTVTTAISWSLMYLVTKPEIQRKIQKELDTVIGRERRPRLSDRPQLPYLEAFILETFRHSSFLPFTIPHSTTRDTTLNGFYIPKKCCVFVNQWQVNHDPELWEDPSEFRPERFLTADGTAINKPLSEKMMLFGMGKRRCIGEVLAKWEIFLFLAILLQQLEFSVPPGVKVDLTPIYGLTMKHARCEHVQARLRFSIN

[11] = inhibitors of firefly luciferase expression or activity, dose response, H4 neuroglioma cells, luminescence (AID 1990); assay type: functional, cell-based
[12] = Luminescence Cell-Based Dose Response HTS to Identify Inhibitors of 5'UTR Stem-Loop Driven Prion Protein mRNA Translation in H4 Neuroglioblastoma Cells. [Related pubchem assays: 1827 (Project Summary), 1813 (Primary HTS)]; assay type: functional
[13] = inhibitors of SNCA 5'UTR-driven reporter translation, confirmation, H4 neuroglioma cells, luminescence (AID 1988); assay type: functional, cell-based
Vero = experiment: West Nile virus antiviral activity, cell-based, CPE readout (AID 1621); assay type: functional; conditions: Chlorocebus sabaeus
[14] = Shn3 3'UTR reporter inhibitors, dose response, cell-based, Clone20 osteoblasts, firefly luciferase, cherry-picked (AID 624132); assay type: functional;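 note: firefly luciferase luminescence from reporter carrying the Shn3 3'UTR in osteoblasts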
[15] = HepG2 cell cytotoxicity, dose response, cytotoxicity control for Shn3 inhibitor project, CellTiter-Glo, cherry-picked (AID 624134); assay type: functional, cell-based
[16] = control 3'UTR Renilla luciferase suppression, dose response, counter-screen for Shn3 inhibitor project, cell-based, Clone20-Shn3RL, cherry-picked (AID 624133); assay type: functional
[17] = biological target: Photoreceptor-specific nuclear receptor (Homo sapiens, UniProt Q9Y5X4); assay type: functional, cell-based;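 note: CHO-S cells with Gal4-NCOR and VP16-NR2E3 two-hybrid luciferase reporter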
[18] = biological target: T5, Endoribonuclease toxin MazF (Escherichia coli K-12, UniProt P0AE70); experiment: MazF toxin RNase activators, dose response, biochemical, fluorescence, single-stranded RNA substrate, uHTS hits (AID 588481); assay type: functional
T5 sequence (P0AE70 whole entry): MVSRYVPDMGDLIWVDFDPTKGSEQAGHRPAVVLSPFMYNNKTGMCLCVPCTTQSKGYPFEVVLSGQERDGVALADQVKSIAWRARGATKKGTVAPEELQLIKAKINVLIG

[19] = biological target: T5, Endoribonuclease toxin MazF; experiment: fluorescent RNA oligo signal without MazF, dose response, counter-screen for MazEF activator project, biochemical, fluorescence, single-stranded RNase substrate (AID 588502); assay type: functional
[20] = biological target: T6, Sentrin-specific protease 1 (Homo sapiens, UniProt Q9P0U3); experiment: potency of human SENP1 inhibitors, dose response, biochemical, kinetic FRET (AID 651697); assay type: functional; conditions: read-out: IC50_Mean
[21] = biological target: T6, Sentrin-specific protease 1; experiment: Dose response confirmation of small molecule inhibitors of the catalytic domain of the SUMO protease, SENP1 in a FRET assay.; assay type: functional; conditions: read-out: IC50_Mean
[22] = biological target: T7, Low molecular weight phosphotyrosine protein phosphatase (Homo sapiens, UniProt P24666); assay type: functional; conditions: read-out: IC50_Mean
[23] = biological target: T7, Low molecular weight phosphotyrosine protein phosphatase; assay type: functional; conditions: read-out: IC50_Mean; remark: listed apart in the source
[24] = biological target: T8, DNA repair and recombination protein RAD54-like (Homo sapiens, UniProt Q92698); experiment: inhibitors of human RAD54 branch migration, confirmation, biochemical, fluorescence, cherry-picked samples, dose series (AID 651657); assay type: functional
T8 sequence (Q92698 whole entry): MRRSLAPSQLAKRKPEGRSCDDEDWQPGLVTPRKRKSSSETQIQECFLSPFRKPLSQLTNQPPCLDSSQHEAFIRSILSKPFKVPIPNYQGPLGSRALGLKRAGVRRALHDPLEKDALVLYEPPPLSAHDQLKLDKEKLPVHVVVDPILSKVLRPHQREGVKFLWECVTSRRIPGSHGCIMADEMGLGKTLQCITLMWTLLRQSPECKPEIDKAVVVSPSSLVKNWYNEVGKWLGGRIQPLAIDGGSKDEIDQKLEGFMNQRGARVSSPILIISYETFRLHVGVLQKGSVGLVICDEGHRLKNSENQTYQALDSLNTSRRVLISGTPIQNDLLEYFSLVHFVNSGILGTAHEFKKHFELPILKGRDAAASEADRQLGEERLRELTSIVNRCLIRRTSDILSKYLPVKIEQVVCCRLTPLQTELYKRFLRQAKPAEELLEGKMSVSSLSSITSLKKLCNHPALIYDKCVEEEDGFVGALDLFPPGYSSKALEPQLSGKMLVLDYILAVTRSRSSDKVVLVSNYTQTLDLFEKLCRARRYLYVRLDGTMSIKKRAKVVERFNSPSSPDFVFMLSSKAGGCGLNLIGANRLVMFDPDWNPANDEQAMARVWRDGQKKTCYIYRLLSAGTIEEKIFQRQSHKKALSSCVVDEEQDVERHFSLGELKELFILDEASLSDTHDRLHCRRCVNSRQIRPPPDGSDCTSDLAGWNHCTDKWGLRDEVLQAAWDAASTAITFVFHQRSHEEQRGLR

[25] = biological target: Tyrosine-protein phosphatase non-receptor type 22 (Homo sapiens, UniProt Q9Y2R2); experiment: LYP phosphatase inhibition for selectivity, dose response, selectivity assay for LMPTP inhibitor project, biochemical, fluorescence, LYP catalytic domain (AID 652006); assay type: functional; conditions: read-out: IC50_Mean
[26] = biological target: SWI/SNF-related matrix-associated actin-dependent regulator of chromatin subfamily A member 2 (Homo sapiens, UniProt P51531); experiment: Luminescence-based cell-based high throughput dose response assay to identify activators of the function of SWI/SNF related, matrix associated, actin dependent regulator of chromatin, subfamily a, member 2 (SMARCA2, BRM).; assay type: functional
[27] = Counterscreen for activators of the function of SWI/SNF related, matrix associated, actin dependent regulator of chromatin, subfamily a, member 2 (SMARCA2, BRM): Luminescence-based cell-based high throughput dose response assay to identify non-selective compounds using the VP16 reporter assay.; assay type: functional
[28] = biological target: T9, DNA repair protein RAD52 homolog (Homo sapiens, UniProt P43351); assay type: functional, biochemical
T9 sequence (P43351 whole entry): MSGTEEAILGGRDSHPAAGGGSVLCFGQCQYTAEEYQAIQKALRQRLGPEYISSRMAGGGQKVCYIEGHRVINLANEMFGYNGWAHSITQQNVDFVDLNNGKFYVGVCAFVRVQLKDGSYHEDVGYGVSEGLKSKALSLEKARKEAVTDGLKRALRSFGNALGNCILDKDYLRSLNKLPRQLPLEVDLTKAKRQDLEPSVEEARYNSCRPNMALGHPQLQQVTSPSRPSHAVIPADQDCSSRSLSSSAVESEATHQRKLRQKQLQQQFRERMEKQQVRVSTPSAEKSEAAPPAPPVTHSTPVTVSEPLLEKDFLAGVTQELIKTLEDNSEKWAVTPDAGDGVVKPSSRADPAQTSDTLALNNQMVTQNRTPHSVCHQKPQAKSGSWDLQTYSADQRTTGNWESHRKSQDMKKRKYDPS

[29] = biological target: Nuclear receptor subfamily 5 group A member 2 (Homo sapiens, UniProt O00482); assay type: functional, cell-based;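 note: HEK293T cells transfected with LRH-1 and a StAR promoter luciferase reporter; potency for inhibitors that lower LRH-1 driven reporter light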
Steroidogenic factor 1 = Steroidogenic factor 1 (Homo sapiens, UniProt Q13285); experiment: Counterscreen for inverse agonists of the liver receptor homolog-1 (LRH-1; NR5A2): Luminescence-based cell-based high throughput dose response assay to identify inverse agonists of the Steroidogenic Factor 1 Nuclear Receptor (SF1; NR5A1).; assay type: functional
[30] = StAR promoter reporter inhibition counter-screen, dose response, counter-screen for LRH-1 inverse agonist project, cell-based, luminescence, luciferase reporter (AID 651969); assay type: functional

T3 sequence (Q38C91 whole entry): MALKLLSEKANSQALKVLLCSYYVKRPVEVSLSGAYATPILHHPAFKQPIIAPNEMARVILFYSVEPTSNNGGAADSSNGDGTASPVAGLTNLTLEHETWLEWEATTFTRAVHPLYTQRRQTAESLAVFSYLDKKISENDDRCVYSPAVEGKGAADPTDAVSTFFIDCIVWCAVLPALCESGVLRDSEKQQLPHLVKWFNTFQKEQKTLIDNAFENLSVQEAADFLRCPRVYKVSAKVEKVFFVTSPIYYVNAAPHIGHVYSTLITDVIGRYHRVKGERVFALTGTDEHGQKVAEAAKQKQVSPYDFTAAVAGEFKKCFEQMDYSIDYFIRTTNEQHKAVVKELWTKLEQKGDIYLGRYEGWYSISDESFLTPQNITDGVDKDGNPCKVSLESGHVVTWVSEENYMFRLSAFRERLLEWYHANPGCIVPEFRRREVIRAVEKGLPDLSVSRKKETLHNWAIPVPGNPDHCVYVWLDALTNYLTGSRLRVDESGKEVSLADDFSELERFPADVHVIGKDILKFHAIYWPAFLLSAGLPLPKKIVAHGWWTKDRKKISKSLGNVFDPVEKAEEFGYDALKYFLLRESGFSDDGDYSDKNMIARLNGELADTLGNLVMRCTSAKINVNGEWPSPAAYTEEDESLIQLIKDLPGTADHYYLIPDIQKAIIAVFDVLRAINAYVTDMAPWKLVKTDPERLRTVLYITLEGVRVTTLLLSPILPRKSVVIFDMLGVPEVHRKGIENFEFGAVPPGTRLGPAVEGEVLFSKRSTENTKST
T7 sequence (P24666 whole entry): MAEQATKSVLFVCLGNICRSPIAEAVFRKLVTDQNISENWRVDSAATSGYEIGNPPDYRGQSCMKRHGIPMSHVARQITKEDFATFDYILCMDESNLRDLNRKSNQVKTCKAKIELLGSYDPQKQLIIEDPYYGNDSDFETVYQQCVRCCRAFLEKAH
T6 sequence (Q9P0U3 whole entry, the tested form may be a part): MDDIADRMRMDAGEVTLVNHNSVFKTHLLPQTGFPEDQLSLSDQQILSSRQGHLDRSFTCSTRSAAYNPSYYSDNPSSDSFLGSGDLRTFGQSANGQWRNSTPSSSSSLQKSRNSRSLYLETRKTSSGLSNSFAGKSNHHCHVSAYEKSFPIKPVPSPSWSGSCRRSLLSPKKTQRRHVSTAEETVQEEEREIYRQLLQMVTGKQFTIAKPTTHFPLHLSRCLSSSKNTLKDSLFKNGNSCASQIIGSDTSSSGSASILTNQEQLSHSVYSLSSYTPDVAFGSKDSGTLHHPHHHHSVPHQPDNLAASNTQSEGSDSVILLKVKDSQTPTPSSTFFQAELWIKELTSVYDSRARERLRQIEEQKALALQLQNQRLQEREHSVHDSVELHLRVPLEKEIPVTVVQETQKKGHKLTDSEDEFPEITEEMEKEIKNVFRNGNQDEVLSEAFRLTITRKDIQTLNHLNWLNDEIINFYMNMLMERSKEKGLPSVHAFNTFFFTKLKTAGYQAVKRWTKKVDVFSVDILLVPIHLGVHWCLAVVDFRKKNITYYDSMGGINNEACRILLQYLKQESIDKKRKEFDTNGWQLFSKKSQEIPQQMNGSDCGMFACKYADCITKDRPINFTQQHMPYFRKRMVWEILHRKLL
Photoreceptor-specific nuclear receptor, sequence (Q9Y5X4 whole entry, the tested form may be a part): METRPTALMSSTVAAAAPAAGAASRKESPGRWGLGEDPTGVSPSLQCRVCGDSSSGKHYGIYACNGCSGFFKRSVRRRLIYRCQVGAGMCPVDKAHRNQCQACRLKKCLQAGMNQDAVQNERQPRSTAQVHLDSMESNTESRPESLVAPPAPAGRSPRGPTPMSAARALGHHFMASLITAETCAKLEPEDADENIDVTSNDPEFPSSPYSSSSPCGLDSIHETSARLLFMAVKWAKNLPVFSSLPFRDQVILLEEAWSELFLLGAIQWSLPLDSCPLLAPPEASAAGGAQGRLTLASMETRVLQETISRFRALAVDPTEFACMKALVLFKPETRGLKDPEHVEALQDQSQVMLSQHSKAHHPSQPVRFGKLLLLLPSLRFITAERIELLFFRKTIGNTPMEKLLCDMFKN
SWI/SNF-related matrix-associated actin-dependent regulator of chromatin subfamily A member 2, sequence (P51531 whole entry): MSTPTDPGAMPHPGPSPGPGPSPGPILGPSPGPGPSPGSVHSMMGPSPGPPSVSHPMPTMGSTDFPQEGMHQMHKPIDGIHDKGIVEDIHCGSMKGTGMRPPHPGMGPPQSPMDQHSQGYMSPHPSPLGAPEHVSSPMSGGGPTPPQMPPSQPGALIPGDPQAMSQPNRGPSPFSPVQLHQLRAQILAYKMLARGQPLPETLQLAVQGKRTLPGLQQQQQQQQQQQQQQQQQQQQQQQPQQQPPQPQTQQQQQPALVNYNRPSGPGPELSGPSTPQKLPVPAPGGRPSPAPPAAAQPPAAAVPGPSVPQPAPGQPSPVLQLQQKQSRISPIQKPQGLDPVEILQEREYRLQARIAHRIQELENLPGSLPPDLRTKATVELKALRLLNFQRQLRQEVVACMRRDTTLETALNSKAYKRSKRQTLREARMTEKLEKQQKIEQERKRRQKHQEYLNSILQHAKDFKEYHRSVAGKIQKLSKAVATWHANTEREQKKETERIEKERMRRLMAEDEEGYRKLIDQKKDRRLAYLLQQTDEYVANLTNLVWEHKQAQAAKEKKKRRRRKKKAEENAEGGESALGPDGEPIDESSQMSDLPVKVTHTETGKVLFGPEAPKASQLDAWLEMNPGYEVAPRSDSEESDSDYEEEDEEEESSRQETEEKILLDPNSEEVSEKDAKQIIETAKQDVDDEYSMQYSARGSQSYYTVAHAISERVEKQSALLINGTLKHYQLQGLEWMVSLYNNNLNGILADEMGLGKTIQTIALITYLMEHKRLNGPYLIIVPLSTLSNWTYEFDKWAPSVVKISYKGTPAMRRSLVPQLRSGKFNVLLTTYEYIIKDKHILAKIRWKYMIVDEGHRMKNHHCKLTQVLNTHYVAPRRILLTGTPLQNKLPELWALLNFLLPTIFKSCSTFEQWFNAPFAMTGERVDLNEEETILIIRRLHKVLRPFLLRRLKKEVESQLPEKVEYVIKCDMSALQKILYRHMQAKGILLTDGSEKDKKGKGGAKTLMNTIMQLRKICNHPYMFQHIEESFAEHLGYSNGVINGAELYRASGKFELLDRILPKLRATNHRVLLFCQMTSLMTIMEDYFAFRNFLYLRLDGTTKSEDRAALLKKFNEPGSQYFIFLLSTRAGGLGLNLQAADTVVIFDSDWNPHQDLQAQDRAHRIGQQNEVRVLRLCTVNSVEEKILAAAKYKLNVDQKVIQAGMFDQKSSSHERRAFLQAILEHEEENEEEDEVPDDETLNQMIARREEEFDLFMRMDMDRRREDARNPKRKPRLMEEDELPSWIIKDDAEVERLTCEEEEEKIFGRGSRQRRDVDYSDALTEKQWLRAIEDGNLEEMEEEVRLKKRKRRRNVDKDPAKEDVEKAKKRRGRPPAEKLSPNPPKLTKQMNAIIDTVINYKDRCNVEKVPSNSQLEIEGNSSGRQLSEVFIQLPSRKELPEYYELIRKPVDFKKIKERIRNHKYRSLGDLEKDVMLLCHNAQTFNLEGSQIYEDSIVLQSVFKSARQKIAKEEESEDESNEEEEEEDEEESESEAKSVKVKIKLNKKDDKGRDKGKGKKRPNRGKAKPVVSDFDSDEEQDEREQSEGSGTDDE
Steroidogenic factor 1, sequence (Q13285 whole entry): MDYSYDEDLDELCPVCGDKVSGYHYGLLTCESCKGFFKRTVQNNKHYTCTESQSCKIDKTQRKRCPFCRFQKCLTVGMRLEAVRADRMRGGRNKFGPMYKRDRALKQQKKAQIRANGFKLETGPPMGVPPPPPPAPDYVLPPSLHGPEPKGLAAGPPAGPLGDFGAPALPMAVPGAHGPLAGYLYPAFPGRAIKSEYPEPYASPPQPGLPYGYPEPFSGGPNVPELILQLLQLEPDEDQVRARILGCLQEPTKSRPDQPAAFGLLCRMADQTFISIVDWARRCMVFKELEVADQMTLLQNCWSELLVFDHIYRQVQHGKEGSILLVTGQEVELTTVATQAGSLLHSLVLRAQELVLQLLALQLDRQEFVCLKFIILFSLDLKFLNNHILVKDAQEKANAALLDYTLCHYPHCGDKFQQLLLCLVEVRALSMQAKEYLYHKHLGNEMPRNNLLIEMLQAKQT
Nuclear receptor subfamily 5 group A member 2, sequence (O00482 whole entry): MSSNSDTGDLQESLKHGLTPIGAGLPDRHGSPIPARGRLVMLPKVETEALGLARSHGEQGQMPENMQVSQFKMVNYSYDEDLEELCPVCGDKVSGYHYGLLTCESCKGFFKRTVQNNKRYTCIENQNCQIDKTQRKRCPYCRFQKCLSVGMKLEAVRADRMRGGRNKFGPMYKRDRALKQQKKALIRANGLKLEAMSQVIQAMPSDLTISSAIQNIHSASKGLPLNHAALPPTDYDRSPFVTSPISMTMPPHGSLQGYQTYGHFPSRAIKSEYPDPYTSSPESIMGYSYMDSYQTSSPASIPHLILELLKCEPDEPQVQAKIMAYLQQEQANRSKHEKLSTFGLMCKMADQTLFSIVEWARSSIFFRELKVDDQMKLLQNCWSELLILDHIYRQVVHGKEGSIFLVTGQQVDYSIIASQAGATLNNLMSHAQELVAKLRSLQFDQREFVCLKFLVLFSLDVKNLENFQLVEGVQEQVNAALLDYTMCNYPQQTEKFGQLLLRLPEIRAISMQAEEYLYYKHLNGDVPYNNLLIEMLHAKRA
ADP-ribosylation factor GTPase-activating protein 1, sequence (Q62848 whole entry): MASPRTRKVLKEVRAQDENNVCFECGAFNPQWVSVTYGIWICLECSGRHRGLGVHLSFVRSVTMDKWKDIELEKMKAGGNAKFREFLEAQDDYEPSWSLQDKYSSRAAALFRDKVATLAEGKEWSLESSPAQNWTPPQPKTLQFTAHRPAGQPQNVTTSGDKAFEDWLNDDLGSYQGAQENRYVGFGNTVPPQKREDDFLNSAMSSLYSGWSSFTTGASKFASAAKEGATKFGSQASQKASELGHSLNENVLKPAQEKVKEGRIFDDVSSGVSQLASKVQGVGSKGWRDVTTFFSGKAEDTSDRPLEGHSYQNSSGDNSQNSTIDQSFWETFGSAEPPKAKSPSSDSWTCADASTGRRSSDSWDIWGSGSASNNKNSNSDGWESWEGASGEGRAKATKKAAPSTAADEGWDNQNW

Cc1ccc2nc(SCC(=O)Nc3cccc(F)c3)nc(=O)n2c1
IC50 [1]: 44.9 µM (inactive)

CCN1C(=O)C(CC(=O)Nc2ccc(Br)cc2)N(CCCc2ccccc2)C1=S (stereo not given)
EC50 [2]: 3.15 µM (active)
EC50 (Streptokinase A): 1.98 µM (active)
EC50 [3]: 2.31 µM (active)
EC50 [4]: 15.3 µM (active)
IC50 [5]: 5.99 µM (not active)
EC50 [6]: > 60 µM (not active)
EC50 [7]: 16.1 µM (active)
EC50 (Streptococcus): 6.98 µM (active)
IC50 [8]: 6.6 µM (active)
IC50 [9]: 41.5 µM (inactive)
IC50 [10]: 5.93 µM (active)
AC50 (Cytochrome P450 1A2): 14.1 µM (inconclusive)

COc1cc2c(OC(C)=O)c3c(c(-c4ccc5c(c4)OCO5)c2cc1OC)C(=O)OC3
EC50 [11]: 8.65 µM (active)
EC50 [12]: 14.4 µM (active)
EC50 [13]: 4.4 µM (active)
IC50 (Vero): 21.1 µM (active)
AC50 [14]: 1.8 µM (active)
AC50 [15]: 1.38 µM (active)
AC50 [16]: 24.5 µM (active)
IC50 [17]: 1.83 µM (active)

CN(N=Cc1cccc2cccnc12)c1ccc([N+](=O)[O-])cc1[N+](=O)[O-]
EC50 [18]: > 99 µM (inactive)
EC50 [19]: 3.55 µM (active)
IC50 [20]: 8.19 µM (active)
IC50 [21]: 4.08 µM (active)

Cc1nccc2cc3[nH]c4ccccc4c3cc12
IC50 [22]: 3.18 µM (active)
IC50 [23]: 2.59 µM (active)
AC50 [24]: 2.49 µM (active)
IC50 [25]: 52.5 µM (inactive)
EC50 [26]: 5.87 µM (active)
EC50 [27]: > 91.2 µM (inactive)
AC50 [28]: 1.96 µM (active)

CC1(C(=O)NCc2ccc3c(c2)OCO3)CCN1C(=O)Cc1ccc(Cl)cc1Cl (stereo not given)
IC50 [29]: 7.36 µM (active)
IC50 (Steroidogenic factor 1): 3.32 µM (active)
IC50 [30]: 35.9 µM (inactive)
